Experimental data from the NIST ThermoML archive (doi:10.1021/je4004542).
Where “and” joins values, the source holds several entries; their conditions need not be identical. Equal values may be shown once.

Conditions: for mass density: Liquid, isochoric method; for surface tension liquid-gas: Ring tensiometer

CC(F)(F)CC(F)(F)F [1,1,1,3,3-pentafluorobutane]
Conditions	mass density [kg/m3]
237.49 K, 3052.4 kPa	1382.79
238.27 K, 4040.1 kPa	1382.71
239.08 K, 5074 kPa	1382.22
239.08 K, 5081.7 kPa	1382.63
243.12 K, 10185 kPa	1382.22
247.08 K, 15188 kPa	1381.81
247.43 K, 956.6 kPa	1361.21
248.25 K, 1931.8 kPa	1361.13
249.22 K, 3081.2 kPa	1361.03
250.2 K, 4243.7 kPa	1360.94
250.92 K, 19991 kPa	1381.43
250.93 K, 5088.8 kPa	1360.86
255 K, 25056 kPa	1381.02
255.26 K, 10152 kPa	1360.44
258.99 K, 29998 kPa	1380.62
259.5 K, 15102 kPa	1360.02
260.21 K, 1298.1 kPa	1336.72
261.05 K, 2152.9 kPa	1336.64
261.98 K, 3278.8 kPa	1336.55
262.73 K, 4030.2 kPa	1336.48
262.97 K, 34873 kPa	1380.23
263.72 K, 19989 kPa	1359.61
263.74 K, 5132.2 kPa	1336.38
267.12 K, 39916 kPa	1379.82
268.05 K, 24964 kPa	1359.2
268.32 K, 10033 kPa	1335.95
272.35 K, 29861 kPa	1358.79
273.08 K, 15145 kPa	1335.5
273.72 K, 1076.8 kPa	1309.97
274.73 K, 2060 kPa	1309.88
275.63 K, 2942.2 kPa	1309.8
276.61 K, 3921.9 kPa	1309.71
276.83 K, 34914 kPa	1358.36
277.65 K, 4903.9 kPa	1309.61
277.66 K, 19995 kPa	1335.08
281.43 K, 40068 kPa	1357.92
282.34 K, 24894 kPa	1334.64
282.69 K, 10162 kPa	1310.01
287.06 K, 29792 kPa	1334.21
287.75 K, 1242 kPa	1280.22
287.79 K, 15107 kPa	1309.56
288.9 K, 2019.2 kPa	1280.13
290.22 K, 3193 kPa	1280.01
291.35 K, 4070.9 kPa	1279.92
292.09 K, 35022 kPa	1333.75
292.96 K, 5455.1 kPa	1279.78
292.96 K, 20092 kPa	1309.09
296.9 K, 39956 kPa	1333.31
297.78 K, 24667 kPa	1308.67
298.16 K, 10021 kPa	1279.33
298.57 K, 1157.4 kPa	1258.72
299.69 K, 2006.3 kPa	1258.62
301.02 K, 3084.3 kPa	1258.51
302.24 K, 4081.3 kPa	1258.41
303.22 K, 29830 kPa	1308.18
303.47 K, 5080.2 kPa	1258.31
303.85 K, 15147 kPa	1278.84
308.65 K, 34947 kPa	1307.7
309.5 K, 20037 kPa	1278.36
309.51 K, 9974.6 kPa	1257.8
309.96 K, 1066.8 kPa	1234.65
311.31 K, 2069.7 kPa	1234.54
312.57 K, 3017.8 kPa	1234.43
313.89 K, 4006.1 kPa	1234.33
314.06 K, 40001 kPa	1307.23
315.23 K, 5013.4 kPa	1234.22
315.28 K, 25013 kPa	1277.86
315.8 K, 15053 kPa	1257.28
321.09 K, 29987 kPa	1277.37
322.04 K, 20055 kPa	1256.76
322.05 K, 10082 kPa	1233.67
322.3 K, 1278.8 kPa	1207.34
323.48 K, 1919.7 kPa	1207.25
325.25 K, 3125.1 kPa	1207.12
326.62 K, 4057.4 kPa	1207.01
326.99 K, 34967 kPa	1276.87
327.9 K, 4926.1 kPa	1206.91
328.32 K, 25047 kPa	1256.24
328.8 K, 15073 kPa	1233.12
333.06 K, 40085 kPa	1276.36
334.62 K, 30028 kPa	1255.72
335.52 K, 1037.9 kPa	1175.56
335.52 K, 10079 kPa	1206.32
335.52 K, 20025 kPa	1232.59
337.15 K, 2014.4 kPa	1175.44
338.81 K, 3050.5 kPa	1175.32
340.39 K, 4011 kPa	1175.2
341.51 K, 35426 kPa	1255.16
342.03 K, 5008.9 kPa	1175.08
342.36 K, 25012 kPa	1232.04
343.05 K, 15153 kPa	1205.73
347.07 K, 39768 kPa	1254.7
353.15 K, 11756 kPa	1174.25
353.15 K, 21912 kPa	1204.96
353.15 K, 32850 kPa	1231.18

Conditions	surface tension liquid-gas
261.8 K	19.87 mN/m
261.94 K	19.66 mN/m
268.05 K	19.19 mN/m
268.09 K	19.01 mN/m
273.05 K	18.56 mN/m and 18.41 mN/m
277.76 K	18.08 mN/m and 17.98 mN/m
282.88 K	17.57 mN/m
282.98 K	17.42 mN/m
288.32 K	17.05 mN/m
288.35 K	16.88 mN/m
293.51 K	16.3 mN/m
293.54 K	16.29 mN/m
297.79 K	15.81 mN/m
297.86 K	15.92 mN/m
302.48 K	15.41 mN/m
302.55 K	15.38 mN/m
308.11 K	14.66 mN/m
308.31 K	14.65 mN/m

COC(F)(F)C(F)(F)C(F)(F)F [heptafluoropropyl methyl ether]
Conditions	mass density [kg/m3]
209.16 K, 1147.7 kPa	1630.6
215.36 K, 9581.3 kPa	1629.81
219.53 K, 15297 kPa	1629.29
220.04 K, 1236.5 kPa	1604.5
223 K, 19918 kPa	1628.87
223.03 K, 4963.4 kPa	1604.13
227.03 K, 9963.9 kPa	1603.65
231.15 K, 15085 kPa	1603.16
231.6 K, 910.5 kPa	1576.15
232.59 K, 2030.9 kPa	1576.04
233.44 K, 3013 kPa	1575.94
234.26 K, 3948.9 kPa	1575.84
235.13 K, 20005 kPa	1602.69
235.25 K, 5067.3 kPa	1575.72
239.34 K, 25172 kPa	1602.2
239.68 K, 10109 kPa	1575.21
243.19 K, 29834 kPa	1601.75
244.03 K, 15038 kPa	1574.72
244.63 K, 1009.9 kPa	1544.86
245.59 K, 1998.3 kPa	1544.75
246.51 K, 2962.6 kPa	1544.65
247.39 K, 3900.7 kPa	1544.55
247.5 K, 35024 kPa	1601.26
248.47 K, 20022 kPa	1574.22
248.53 K, 5046.1 kPa	1544.43
251.72 K, 40059 kPa	1600.78
252.99 K, 25061 kPa	1573.71
253.35 K, 10014 kPa	1543.89
257.43 K, 29986 kPa	1573.22
258.16 K, 14929 kPa	1543.37
258.74 K, 1019.7 kPa	1509.93
259.75 K, 1914.3 kPa	1509.82
260.88 K, 2987.6 kPa	1509.7
261.92 K, 3946.9 kPa	1509.59
262 K, 34997 kPa	1572.72
263.02 K, 19886 kPa	1542.85
263.07 K, 5031.9 kPa	1509.47
266.61 K, 40003 kPa	1572.21
267.97 K, 24863 kPa	1542.32
268.54 K, 10046 kPa	1508.89
273.04 K, 29941 kPa	1541.78
273.95 K, 14959 kPa	1508.34
274.52 K, 994.4 kPa	1470.55
275.72 K, 1967.2 kPa	1470.43
276.99 K, 3007.5 kPa	1470.3
278.09 K, 34925 kPa	1541.25
278.24 K, 4016.2 kPa	1470.18
279.44 K, 4996 kPa	1470.06
279.44 K, 19959 kPa	1507.77
283.23 K, 39964 kPa	1540.71
284.96 K, 24913 kPa	1507.21
285.69 K, 10030 kPa	1469.44
285.95 K, 1083.6 kPa	1440.86
287.33 K, 2026 kPa	1440.73
288.68 K, 3021.9 kPa	1440.6
289.89 K, 3919.7 kPa	1440.48
290.57 K, 29908 kPa	1506.65
291 K, 4729.9 kPa	1440.38
291.9 K, 15010 kPa	1468.83
296.23 K, 34913 kPa	1506.08
298.15 K, 9994.4 kPa	1439.7
298.15 K, 19997 kPa	1468.22
298.45 K, 987.1 kPa	1407.52
300.45 K, 2316.3 kPa	1407.33
301.51 K, 3015.6 kPa	1407.24
302.03 K, 40008 kPa	1505.49
303.04 K, 4032 kPa	1407.09
304.36 K, 4907.1 kPa	1406.97
304.43 K, 24980 kPa	1467.62
305.45 K, 15319 kPa	1439.01
310.78 K, 29953 kPa	1467.01
312.11 K, 10022 kPa	1406.27
312.12 K, 1009.6 kPa	1369.41
312.57 K, 20469 kPa	1438.34
313.79 K, 1997.3 kPa	1369.27
315.49 K, 2985.1 kPa	1369.12
317.16 K, 3966.3 kPa	1368.97
317.19 K, 34932 kPa	1466.39
318.7 K, 4864.6 kPa	1368.84
319.58 K, 25523 kPa	1437.69
319.65 K, 14861 kPa	1405.59
323.78 K, 40025 kPa	1465.77
326.44 K, 30424 kPa	1437.05
327.49 K, 1098.2 kPa	1324.67
327.49 K, 10016 kPa	1368.08
327.51 K, 19990 kPa	1404.89
329.49 K, 2043 kPa	1324.5
331.48 K, 3053.3 kPa	1324.34
333.43 K, 4045.4 kPa	1324.18
333.47 K, 35408 kPa	1436.41
335.24 K, 25016 kPa	1404.19
335.37 K, 5030.2 kPa	1324.02
335.65 K, 14779 kPa	1367.37
340.74 K, 40506 kPa	1435.74
342.96 K, 29980 kPa	1403.51
344.67 K, 20018 kPa	1366.6
345.22 K, 10048 kPa	1323.21
353.15 K, 14072 kPa	1322.56
353.15 K, 24901 kPa	1365.87
353.15 K, 36576 kPa	1402.6

Conditions	surface tension liquid-gas [mN/m]
261.81 K	15.99
261.89 K	15.89
267.86 K	15.39
267.87 K	15.34
272.93 K	14.86
272.95 K	14.85
277.8 K	14.35
277.82 K	14.4
282.63 K	13.7
282.77 K	13.93
287.73 K	13.15
287.83 K	13.47
292.56 K	13.04
297.67 K	12.54
